# Reference: patent US20260123631A1, “NATURAL PORPHIN SALT AND USE THEREOF AS PLANT GROWTH REGULATOR AND PLANT IMMUNITY INDUCER” (NANJING BOSTEC BIOLOGICAL ENGINEERING CO., LTD, priority 2022, published 2026)
# Assays:
# [1] = Water solubility of the prepared salts; type: physicochemical
# [2] = Dilution and pH determination for sample solutions; type: physicochemical
# Experimental: Method: 0.2500 g of a sample was accurately weighed and added to a 25 mL volumetric flask, dissolved with purified water, and diluted to a specified scale to prepare a 1.00% (10,000.0 ppm) initial solution. The initial solution was diluted with purified water in different ratios to prepare a series of solutions with a concentration of 1,000.0 ppm to 0.1 ppm. A pH value of each sample was determined three times.
# [3] = Stability of sample solutions in the dark/under light; type: physicochemical; conditions: under light 30,000 lux, salts in water, acidic reference in 30% to 50% ethanol
# How it was run: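 Salt in water, or acidic reference in 30–50% aqueous ethanol, at about 10 ppm; UV absorbance scanned 200–800 nm at 0, 1, 2, 3 h, stored at 25° C dark or under 30,000 lux light. Relative content = max-peak absorbance at each time divided by 0 h value (100%).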
# wheat = assay: Germination of wheat and growth of seedlings; type: in vivo, wheat (Huaimai 35); conditions: for Root length / Root number / Root weight / Seedling height / Seedling weight: wheat seedlings
# Experimental: Method: 3 replicates were set for each treatment. 50 full seeds with a consistent size were selected each time for each sample, disinfected with sodium hypochlorite for 5 min, rinsed with clear water, and placed in a plastic box filled with 100 g of a sand. 25 mL of a prepared sample solution was poured into the plastic box, and the seeds were arranged regularly. The plastic box was covered with a lid, and then incubated in a 25° C. incubator. The germination was determined when a length of a sprout of a wheat seed exceeded a half of a diameter (long axis) of the wheat seed (determination criterion). According to the growth of wheat, the germ exposure of seeds and the number of germinated seeds were recorded every day. On day 6, 10 wheat seedlings were randomly selected, and a root length, a plant height, and a root number were determined. On day 7, a root weight and an aboveground part weight were determined. All index data was produced based on 3 replicates.
# mung bean seedlings = assay: Inducing adventitious roots from hypocotyls of mung bean; type: in vivo; conditions: day 7
# Experimental: Test solution preparation: 8 mL of a commercially-available STANLEY universal hydroponic nutrient solution was taken and diluted with tap water to 3,200 mL (400-fold dilution) to produce a dilute nutrient solution. An appropriate amount of each of salt samples such as protoporphyrin disodium and potassium chlorhematin was weighed and prepared with the dilute nutrient solution into 0.010 ppm and 0.1 ppm sample test solutions, and 150 mL of each test solution was taken. 150 mL of the dilute nutrient solution was taken as a blank control. The test solutions and the control solution were placed in brown bottles, and the brown bottles were sealed with a black film. Mung bean seedlings with uniform growth and a seedling height of 7 cm to 8 cm were selected, and cut at 3 cm below a first true leaf node. 8 mung bean seedlings were inserted into each bottle (with roots removed) to make lower radicles soaked in a solution. Mung bean seedlings were treated at room temperature of 20° C. to 25° C. for 7 d in total, during which the solution was changed every 2 d. On day 2 to day 3 of the treatment, there was a significant difference. On day 7, the observation and determination were conducted. An average adventitious root number and an average total adventitious root length for each seedling were calculated, and results were shown in the following table: […]
# pepper = assay: Spraying on pepper to increase a yield; type: in vivo, pepper (Hebei Jize pepper)
# Experimental: Experimental method: A land area of 10 mu was adopted for each of experimental and control groups. A treatment group was sprayed with a potassium hematin solution, a control group was sprayed with heme (at the same dose concentration as the treatment group), and a blank was sprayed with clear water. On May 19 (after transplanting) and July 2 (blooming stage), an agent was sprayed at 1.5 mg/mu in the treatment and control groups, with water amounts per mu respectively as follows: 15 L and 30 L (sample concentrations: 0.1 ppm and 0.05 ppm). On September 13, 10 pepper plants with uniform growth were selected from each of the treatment group and the control group, and fruit numbers and single-fruit weights were counted. The whole field was harvested in three batches on August 30, September 13, and September 25, respectively. Yields were subjected to combined statistics and comparison, and results were as follows: […]
# [4] = 1.5 mg/mu sprayed twice (0.1 ppm and 0.05 ppm)
compound,measurement,setting,value
"C=CC1=C(C)c2cc3[n-]c(cc4nc(cc5[n-]c(cc1n2)c(C)c5C=C)C(C)=C4CCC(=O)[O-])c(CCC(=O)[O-])c3C.[Cl-].[Fe+3].[K+].[K+] [Example 10, potassium chlorhematin]",solubility in water,[1],easily soluble
same,pH,[2]; 0.1 ppm in purified water,(6.85)
same,pH,[2]; 1.0 ppm in purified water,(6.90)
same,pH,[2]; 10.0 ppm in purified water,(7.33)
same,pH,[2]; 20.0 ppm in purified water,(7.45)
same,pH,[2]; 30.0 ppm in purified water,(7.57)
same,pH,[2]; 100.0 ppm in purified water,(8.10)
same,pH,[2]; 1000.0 ppm in purified water,(9.43)
same,pH,[2]; 10000.0 ppm in purified water,(10.21)
same,Relative content,[3]; 1 h,90.91%
same,Relative content,[3]; 2 h,90.08%
same,Relative content,[3]; 3 h,81.82%
same,Germination rate of wheat,wheat; 0.0025 ppm,94.0%
same,Root length,wheat; 0.0025 ppm,10.01 cm
same,Root number,wheat; 0.0025 ppm,5.1
same,Root weight,wheat; 0.0025 ppm,0.1163 g
same,Seedling height,wheat; 0.0025 ppm,9.42 cm
same,Seedling weight,wheat; 0.0025 ppm,0.298 g
same,Germination rate of wheat,wheat; 0.0250 ppm,94.7%
same,Root length,wheat; 0.0250 ppm,9.74 cm
same,Root number,wheat; 0.0250 ppm,5.2
same,Root weight,wheat; 0.0250 ppm,0.1143 g
same,Seedling height,wheat; 0.0250 ppm,9.56 cm
same,Seedling weight,wheat; 0.0250 ppm,0.286 g
same,Germination rate of wheat,wheat; 0.2500 ppm,97.3%
same,Root length,wheat; 0.2500 ppm,9.15 cm
same,Root number,wheat; 0.2500 ppm,5.3
same,Root weight,wheat; 0.2500 ppm,0.1036 g
same,Seedling height,wheat; 0.2500 ppm,7.51 cm
same,Seedling weight,wheat; 0.2500 ppm,0.211 g
same,Adventitious root number,mung bean seedlings; 0.01 ppm,14.85 root/seedling
same,Total adventitious root length,mung bean seedlings; 0.01 ppm,26.83 cm/seedling
same,Adventitious root number,mung bean seedlings; 0.1 ppm,14.02 root/seedling
same,Total adventitious root length,mung bean seedlings; 0.1 ppm,25.21 cm/seedling
same,Average fruit number,pepper; [4],50.5 fruits/plant
same,Single-fruit weight,pepper; [4],18.5 g/fruit
same,Yield per mu,pepper; [4],2975.0 kg/mu
same,Yield increase rate,"pepper; 1.5 mg/mu sprayed twice, versus clear water",10.59%
